# Like-named read-outs stand apart in the source and are kept apart here.
# Experiments:
# NAMPT = molecular target: T1, NAMPT (Homo sapiens, UniProt P43490); experiment: Biochemical inhibition assay: NAMPT enzymatic reaction, NMN quantified by mass spectrometry; conditions: read-out: Biochem IC50
# T1 construct: His tag; host or cells: E. coli
# Procedure, shortened: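 Inhibition of E. coli-expressed His-tagged human NAMPT, measured as NMN formation by mass spectrometry after a 30 min room-temperature reaction containing 1 μM NAM, 100 μM PRPP and 2.5 mM ATP.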
# A2780 cells = experiment: In-vitro cell proliferation assay (SRB), A2780 cells; assay type: cell-based; conditions: Homo sapiens, A2780, 72 h, A2780 cells, 72 hours, read-out: A2780 IC50
# Procedure, shortened: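 Growth inhibition was derived from background-corrected SRB absorbance (570 nm), measured on cells fixed in 6% TCA after three days of compound treatment under 5% CO2 at 37° C.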
# T1 sequence (P43490 whole entry): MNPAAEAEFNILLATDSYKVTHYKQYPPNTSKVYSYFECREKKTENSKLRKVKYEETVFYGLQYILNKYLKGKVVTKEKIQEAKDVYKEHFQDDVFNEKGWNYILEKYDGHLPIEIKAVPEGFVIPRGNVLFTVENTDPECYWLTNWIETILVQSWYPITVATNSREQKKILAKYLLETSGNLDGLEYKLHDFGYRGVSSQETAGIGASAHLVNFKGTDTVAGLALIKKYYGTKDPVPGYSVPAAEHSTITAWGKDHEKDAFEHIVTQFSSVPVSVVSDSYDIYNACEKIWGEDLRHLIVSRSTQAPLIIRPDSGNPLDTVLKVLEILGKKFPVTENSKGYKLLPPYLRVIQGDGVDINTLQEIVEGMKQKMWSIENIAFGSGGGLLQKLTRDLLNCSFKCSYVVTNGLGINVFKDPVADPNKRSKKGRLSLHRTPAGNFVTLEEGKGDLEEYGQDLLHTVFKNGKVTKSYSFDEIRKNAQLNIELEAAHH
Compound,IC50 (NAMPT; NAMPT enzymatic reaction) [nM],IC50 (A2780 cells; SRB) [nM],IC50 (NAMPT; NAMPT enzymatic assay) [nM],IC50 (A2780 cells; SRB assay) [nM]
COc1ccc(S(=O)(=O)c2ccc(CNC(=O)c3cc4ccncc4s3)cc2)c(Cl)c1,2.7,5.5,,
O=C(NCc1ccc(S(=O)(=O)c2cc(F)ccc2Cl)cc1)c1ccc2nccn2c1,21,6.3,,
"O=C(NCc1ccc(S(=O)(=O)c2cc(OC(F)(F)F)ccc2Cl)cc1)c1cc2cnccc2[nH]1 [N-[(4-{[2-chloro-5-(trifluoromethoxy)benzene]sulfonyl}phenyl)methyl]-1H-pyrrolo[3,2-c]pyridine-2-carboxamide]",,12,53.1,
CCc1ccccc1S(=O)(=O)c1ccc(CNC(=O)c2cnc3nccn3c2)cc1,2.5,24.9,,
"O=C(NCc1ccc(S(=O)(=O)c2ccc(C(F)F)c(F)c2)cc1)c1cnc2nccn2c1 [N-[(4-{[4-(difluoromethyl)-3-fluorobenzene]sulfonyl}phenyl)methyl]imidazo[1,2-a]pyrimidine-6-carboxamide]",,27.9,8.2,
"COc1ccc(C(C)(C)C)cc1S(=O)(=O)c1ccc(CNC(=O)c2cc3cnccc3[nH]2)cc1 [N-({4-[(5-tert-butyl-2-methoxybenzene)sulfonyl]phenyl}methyl)-1H-pyrrolo[3,2-c]pyridine-2-carboxamide]",647,,,6
"O=C(NCc1ccc(S(=O)(=O)c2cccc3c2Oc2ccccc2S3)cc1)c1cnc2[nH]ncc2c1 [N-{[4-(phenoxathiine-4-sulfonyl)phenyl]methyl}-1H-pyrazolo[3,4-b]pyridine-5-carboxamide]",,20.4,14.8,
Cc1cc(C)c(S(=O)(=O)c2ccc(CNC(=O)c3cc4ccncc4o3)cc2)cc1C,9.1,14.1,,
"O=C(NCc1ccc(S(=O)(=O)c2ccccc2)cc1)N1CCc2ncncc2C1 [N-{[4-(benzenesulfonyl)phenyl]methyl}-5H,6H,7H,8H-pyrido[4,3-d]pyrimidine-6-carboxamide]",> 2000,,,> 2000
O=C(NCc1ccc(S(=O)(=O)c2ccc(C(F)(F)F)cc2F)cc1)c1cc2ccncc2s1,,42.3,20.2,
"CN(C)c1ccc(S(=O)(=O)c2ccc(CNC(=O)c3ccc4nccn4c3)cc2)cn1 [N-({4-[6-(dimethylamino)pyridine-3-sulfonyl]phenyl}methyl)imidazo[1,2-a]pyridine-6-carboxamide]",,2.7,44.9,
CCOc1cccc(S(=O)(=O)c2ccc(CNC(=O)c3cnc4[nH]ncc4c3)cc2)c1,14.6,19,,
"Cc1cc(F)ccc1S(=O)(=O)c1ccc(CNC(=O)c2cnc3[nH]ncc3c2)cc1 [N-({4-[(4-fluoro-2-methylbenzene)sulfonyl]phenyl}methyl)-1H-pyrazolo[3,4-b]pyridine-5-carboxamide]",78.8,98.3,,
"CCc1ccc(S(=O)(=O)c2ccc(CNC(=O)c3cc4ccncc4o3)cc2)cc1 [N-({4-[(4-ethylbenzene)sulfonyl]phenyl}methyl)furo[2,3-c]pyridine-2-carboxamide]",5,7,,
"O=C(NCc1ccc(S(=O)(=O)c2ccccc2)cc1)c1n[nH]c2ncccc12 [N-{[4-(benzenesulfonyl)phenyl]methyl}-1H-pyrazolo[3,4-b]pyridine-3-carboxamide]",1270,,,> 10000
CCOc1ccc(S(=O)(=O)c2ccc(CNC(=O)c3ccc4nccn4c3)cc2)c(C)c1,6.6,11.1,,
"O=C(NCc1ccc(S(=O)(=O)c2ccccc2Cl)cc1)c1ccc2nccn2c1 [N-({4-[(2-chlorobenzene)sulfonyl]phenyl}methyl)imidazo[1,2-a]pyridine-6-carboxamide]",24.1,56.7,,
"Cc1cc(Cl)cnc1S(=O)(=O)c1ccc(CNC(=O)c2cc3ccncc3o2)cc1 [N-{[4-(5-chloro-3-methylpyridine-2-sulfonyl)phenyl]methyl}furo[2,3-c]pyridine-2-carboxamide]",,16.5,9.9,
"CCCCOc1cccc(S(=O)(=O)c2ccc(CNC(=O)c3cc4ccncc4o3)cc2)c1 [N-({4-[(3-butoxybenzene)sulfonyl]phenyl}methyl)furo[2,3-c]pyridine-2-carboxamide]",12.3,69.5,,
"O=C(NCc1ccc(S(=O)(=O)c2ccc(N3CCOCC3)nc2)cc1)c1ccc2nccn2c1 [N-({4-[6-(morpholin-4-yl)pyridine-3-sulfonyl]phenyl}methyl)imidazo[1,2-a]pyridine-6-carboxamide]",,1.5,9,
CCOc1cccc(S(=O)(=O)c2ccc(CNC(=O)c3cnc4nccn4c3)cc2)c1F,4,19.7,,
"Cc1cccc(S(=O)(=O)c2ccc(CNC(=O)c3cc4ccncc4o3)cc2)c1 [N-({4-[(3-methylbenzene)sulfonyl]phenyl}methyl)furo[2,3-c]pyridine-2-carboxamide]",2.3,5.3,,
"Cc1ccc(F)c(S(=O)(=O)c2ccc(CNC(=O)c3cc4cnccc4[nH]3)cc2)c1 [N-({4-[(2-fluoro-5-methylbenzene)sulfonyl]phenyl}methyl)-1H-pyrrolo[3,2-c]pyridine-2-carboxamide]",25,,,24
"O=C(NCc1ccc(S(=O)(=O)c2cnn(-c3cccc(Cl)c3)c2)cc1)c1cnc2[nH]ncc2c1 [N-({4-[1-(3-chlorophenyl)-1H-pyrazole-4-sulfonyl]phenyl}methyl)-1H-pyrazolo[3,4-b]pyridine-5-carboxamide]",,55.6,28.2,

Compound,IC50 (NAMPT; NAMPT enzymatic reaction) [nM],IC50 (A2780 cells; SRB) [nM],IC50 (NAMPT; NAMPT enzymatic assay) [nM],IC50 (A2780 cells; SRB assay) [nM]
COc1ccc(C(C)(C)C)cc1S(=O)(=O)c1ccc(CNC(=O)c2cc3ccncc3o2)cc1,,10.1,21.8,
COCc1cccc(S(=O)(=O)c2ccc(CNC(=O)c3cc4ccncc4o3)cc2)c1,,13.4,18.5,
O=C(NCc1ccc(S(=O)(=O)c2ccc(C(F)(F)F)cc2Cl)cc1)c1cc2cnccc2[nH]1,,25.4,127,
"O=C(NCc1ccc(S(=O)(=O)CCc2ccccc2)cc1)C1=Nc2ccncc2C1 [N-({4-[(2-phenylethane)sulfonyl]phenyl}methyl)-1H-pyrrolo[3,2-c]pyridine-2-carboxamide]",11,,,22
O=C(NCc1ccc(S(=O)(=O)c2cccc(F)c2)cc1)c1cnc2nccn2c1,1.9,22.1,,
O=C(NCc1ccc(S(=O)(=O)c2cccc(C(F)(F)F)c2)cc1)c1cc2ccncc2o1,,4.8,5.4,
"O=C(NCc1ccc(S(=O)(=O)c2ccccc2OC(F)(F)F)cc1)c1cnc2nccn2c1 [N-[(4-{[2-(trifluoromethoxy)benzene]sulfonyl}phenyl)methyl]imidazo[1,2-a]pyrimidine-6-carboxamide]",,11.5,2.4,
"Cc1c(F)cccc1S(=O)(=O)c1ccc(CNC(=O)c2cnc3[nH]ncc3c2)cc1 [N-({4-[(3-fluoro-2-methylbenzene)sulfonyl]phenyl}methyl)-1H-pyrazolo[3,4-b]pyridine-5-carboxamide]",46.9,71.8,,
CCc1cccc(S(=O)(=O)c2ccc(CNC(=O)c3cnc4[nH]ncc4c3)cc2)c1,7,7.1,,
COc1ccc(S(=O)(=O)c2ccc(CNC(=O)c3cnc4[nH]ncc4c3)cc2)cc1Cl,4,3.6,,
COc1cc(S(=O)(=O)c2ccc(CNC(=O)c3cnc4[nH]ncc4c3)cc2)ccc1Cl,12.7,13,,
Cc1c(Cl)cccc1S(=O)(=O)c1ccc(CNC(=O)c2cc3cnccc3[nH]2)cc1,62.5,12,,
"Cc1ccc(S(=O)(=O)c2ccc(CNC(=O)c3ccc4nccn4c3)cc2)cn1 [N-{[4-(6-methylpyridine-3-sulfonyl)phenyl]methyl}imidazo[1,2-a]pyridine-6-carboxamide]",,13.9,21.5,
O=C(NCc1ccc(S(=O)(=O)c2ccc(N3CCOCC3)cc2)cc1)c1cc2ccncc2o1,,2.5,4.6,
"O=C(NCc1ccc(S(=O)(=O)c2ccc(C(F)(F)F)cc2C(F)(F)F)cc1)c1cc2ccncc2s1 [N-[(4-{[2,4-bis(trifluoromethyl)benzene]sulfonyl}phenyl)methyl]thieno[2,3-c]pyridine-2-carboxamide]",,4.3,21.5,
"Cc1ccc(S(=O)(=O)c2ccc(CNC(=O)c3ccc4nccn4c3)cc2)c(C)c1 [N-({4-[(2,4-dimethylbenzene)sulfonyl]phenyl}methyl)imidazo[1,2-a]pyridine-6-carboxamide]",21.6,32.1,,
COc1c(C)cc(S(=O)(=O)c2ccc(CNC(=O)c3cc4cnccc4[nH]3)cc2)cc1C,51.6,1.7,,
COc1cc(S(=O)(=O)c2ccc(CNC(=O)c3cc4ccncc4s3)cc2)ccc1Cl,2.6,2.3,,
"O=C(NCc1ccc(S(=O)(=O)N2CCCCC2)cc1)c1ccc2nc[nH]c2c1 [N-{[4-(piperidine-1-sulfonyl)phenyl]methyl}-1H-1,3-benzodiazole-5-carboxamide]",21,,,10
"Cc1ncccc1S(=O)(=O)c1ccc(CNC(=O)c2cnc3[nH]ncc3c2)cc1 [N-{[4-(2-methylpyridine-3-sulfonyl)phenyl]methyl}-1H-pyrazolo[3,4-b]pyridine-5-carboxamide]",,136,105,
CCOc1cc(F)ccc1S(=O)(=O)c1ccc(CNC(=O)c2cnc3[nH]ncc3c2)cc1,86.3,67,,
"COc1ccc(S(=O)(=O)c2ccc(CNC(=O)c3cc4cnccc4[nH]3)cc2)cc1C [N-({4-[(4-methoxy-3-methylbenzene)sulfonyl]phenyl}methyl)-1H-pyrrolo[3,2-c]pyridine-2-carboxamide]",10,,,2
O=C(NCc1ccc(S(=O)(=O)c2cccc(OCCN3CCOCC3)c2)cc1)c1cc2cnccc2[nH]1,,12.6,64.9,
